We go through four compounds from US4759928A, “Antibiotic: Treponemycin” (Washington State University Research Foundation, priority 1986, dated 1988).

Test [1] has as its system Bacillus subtilis and Saccharomyces cerevisiae. The experiment in a line: antimicrobial activity, paper disk agar diffusion bioassay. In kind it is cell-based. In general terms: In agar diffusion tests the substance spreads into inoculated agar from a disc or well.
In test [2] the test system is Streptomyces sp. isolates 275 and 124. The experiment in a line: Streptomycin susceptibility. In kind it is cell-based, Streptomyces albovinaceous. An excerpt: Streptomyces sp. isolates 124 and 275 were characterized by the methods developed by collaborators of the International Streptomyces Project for the identification of Streptomyces species (1, 7, 8, 10-14). Identification was made by using Nonomura's classification key (7) and Bergey's Manual of Determinative Bacteriology (1). The color of mature aerial mycelia was observed on OMA, potato dextrose agar, and Pridham and Gottlieb's basal agar with glucose (8). The colony color on the reverse side of the plate was observed on potato dextrose agar, OMA, and tyrosine-casein-nitrate agar. Color standards and color nomenclature were used to describe the colony color. The production of melanoid pigments was examined on peptone-iron agar, tyrosine agar, and tryptone-yeast extract broth. Carbon utilization by the organism was studied on Pridham and Gottlieb's basal agar with various carbon sources added (8).

The test system of test [3] is Fusobacterium necrophorum. To be noted: cited from earlier work.
The next test has as its system dopamine β-hydroxylase. To be noted: cited from earlier work.
For test [4] the following is noted: cited from earlier work.

Consider `C[C@@H]1C[C@H](C)C[C@H](C)[C@@H](O)CC(=O)O[C@H]([C@@H]2CCC[C@H]2C(=O)O)C/C=C/C=C(/CN)[C@H](O)[C@@H](C)C1` [primary amine], for which the antimicrobial activity entry in test [1] was “no antimicrobial activity”.

Turning to `[H]/N=C(/N)N[C@H]1[C@H](O)[C@@H](O)[C@H](O[C@@H]2O[C@@H](C)[C@](O)(C=O)[C@H]2O[C@@H]2O[C@@H](CO)[C@H](O)[C@@H](O)[C@@H]2NC)[C@@H](N/C(N)=N\[H])[C@@H]1O` [Streptomycin], the Streptomycin susceptibility entry in test [2] (10 μg/ml) is given as “not”; in test [2] (50 μg/ml), “Inhibited”.

For the compound `CC[C@H]1OC(=O)[C@H](C)[C@@H](O[C@H]2C[C@@](C)(OC)[C@@H](O)[C@H](C)O2)[C@H](C)[C@@H](O[C@@H]2O[C@H](C)C[C@H](N(C)C)[C@H]2O)[C@](C)(O)C[C@@H](C)C(=O)[C@H](C)[C@@H](O)[C@]1(C)O` [erythromycin], the “resistance of Fusobacterium necrophorum” value in test [3] is given as “high levels of resistance”.

Consider `[C-]#[N+]C(C(=O)OCC(O)C(O)C(O)C(O)COC(=O)C([N+]#[C-])=C(C)C)=C(C)C` (stereo not drawn) [A32390A], for which the “inhibitor of dopamine β-hydroxylase” value in the test with dopamine β-hydroxylase is reported as “inhibitor”. For the same compound, in test [4], the antimicrobial entry was “antimicrobial compound”.
